According to PubChem BioAssay (NCI):
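Cells were grown in 96-well plates and exposed to each compound for 48 hours at five concentrations; endpoints were interpolated linearly between bracketing concentrations, or set to the highest concentration if not reached. GI50 = concentration required for 50% inhibition of growth. TGI is the concentration that stops growth completely.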

Experiments:
Assay in all cases: inhibition of tumour cell growth, NCI panel, 48 h
786-0 renal = tested on: 786-0 renal
A498 renal = tested on: A498 renal
A549 NSCLC = tested on: A549 NSCLC
ACHN renal = tested on: ACHN renal
BT-549 breast = tested on: BT-549 breast
CAKI-1 renal = tested on: CAKI-1 renal
CCRF-CEM leukemia = tested on: CCRF-CEM leukemia
COLO 205 colon = tested on: COLO 205 colon
DU-145 prostate = tested on: DU-145 prostate
EKVX NSCLC = tested on: EKVX NSCLC
HCC-2998 colon = tested on: HCC-2998 colon
HCT-116 colon = tested on: HCT-116 colon
HCT-15 colon = tested on: HCT-15 colon
HL-60(TB) leukemia = tested on: HL-60(TB) leukemia
HOP-62 NSCLC = tested on: HOP-62 NSCLC
HOP-92 NSCLC = tested on: HOP-92 NSCLC
HS 578T breast = tested on: HS 578T breast
HT29 colon = tested on: HT29 colon
IGROV1 ovarian = tested on: IGROV1 ovarian
KM12 colon = tested on: KM12 colon
LOX IMVI melanoma = tested on: LOX IMVI melanoma
M14 melanoma = tested on: M14 melanoma
MALME-3M melanoma = tested on: MALME-3M melanoma
MDA-MB-231 breast = tested on: MDA-MB-231 breast
MDA-MB-435 = tested on: MDA-MB-435
MOLT-4 leukemia = tested on: MOLT-4 leukemia
NCI-H226 lung = tested on: NCI-H226 lung
NCI-H23 lung = tested on: NCI-H23 lung
NCI-H460 lung = tested on: NCI-H460 lung
NCI-H522 lung = tested on: NCI-H522 lung
NCI/ADR-RES ovarian = tested on: NCI/ADR-RES ovarian
OVCAR-3 ovarian = tested on: OVCAR-3 ovarian
OVCAR-4 ovarian = tested on: OVCAR-4 ovarian
OVCAR-5 ovarian = tested on: OVCAR-5 ovarian
OVCAR-8 ovarian = tested on: OVCAR-8 ovarian
PC-3 prostate = tested on: PC-3 prostate
RPMI-8226 leukemia = tested on: RPMI-8226 leukemia
RXF 393 renal = tested on: RXF 393 renal
SF-268 CNS = tested on: SF-268 CNS
SF-295 CNS = tested on: SF-295 CNS
SF-539 CNS = tested on: SF-539 CNS
SK-MEL-2 melanoma = tested on: SK-MEL-2 melanoma
SK-MEL-28 melanoma = tested on: SK-MEL-28 melanoma
SK-MEL-5 melanoma = tested on: SK-MEL-5 melanoma
SK-OV-3 ovarian = tested on: SK-OV-3 ovarian
SN12C renal = tested on: SN12C renal
SNB-19 CNS = tested on: SNB-19 CNS
SNB-75 CNS = tested on: SNB-75 CNS
SW-620 colon = tested on: SW-620 colon
T-47D breast = tested on: T-47D breast
TK-10 renal = tested on: TK-10 renal
U251 CNS = tested on: U251 CNS
UACC-257 melanoma = tested on: UACC-257 melanoma
UACC-62 melanoma = tested on: UACC-62 melanoma
UO-31 renal = tested on: UO-31 renal
K-562 leukemia = tested on: K-562 leukemia
MCF7 breast = tested on: MCF7 breast
SR leukemia = tested on: SR leukemia

## C=C1C(=O)O[C@H]2[C@H]1CC/C(CNC(=O)c1cccc3ccccc13)=C\CC[C@@]1(C)O[C@@H]21
786-0 renal
  GI50: 1.64 µM
  TGI: 3.41 µM
A498 renal
  GI50: 5.93 µM
  TGI: 19.2 µM
A549 NSCLC
  GI50: 14.1 µM
  TGI: 35.3 µM
ACHN renal
  GI50: 1.52 µM
  TGI: 6.3 µM
BT-549 breast
  GI50: 1.58 µM
  TGI: 3.87 µM
CAKI-1 renal
  GI50: 1.19 µM
  TGI: 4.74 µM
CCRF-CEM leukemia
  GI50: 0.424 µM
  TGI: 6.03 µM
COLO 205 colon
  GI50: 1.75 µM
  TGI: 3.53 µM
DU-145 prostate
  GI50: 1.02 µM
  TGI: 2.47 µM
EKVX NSCLC
  GI50: 2.2 µM
  TGI: 8.79 µM
HCC-2998 colon
  GI50: 2.43 µM
  TGI: 5.2 µM
HCT-116 colon
  GI50: 1.03 µM
  TGI: 2.32 µM
HCT-15 colon
  GI50: 1.31 µM
  TGI: 3.14 µM
HL-60(TB) leukemia
  GI50: 1.34 µM
  TGI: 4.38 µM
HOP-62 NSCLC
  GI50: 14.1 µM
  TGI: 30.7 µM
HOP-92 NSCLC
  GI50: 1.83 µM
  TGI: 4.44 µM
HS 578T breast
  GI50: 6.22 µM
  TGI: 44.4 µM
HT29 colon
  GI50: 1.84 µM
  TGI: 4.75 µM
IGROV1 ovarian
  GI50: 1.33 µM
  TGI: 3.86 µM
KM12 colon
  GI50: 5.25 µM
  TGI: 21 µM
LOX IMVI melanoma
  GI50: 1.53 µM
  TGI: 3.19 µM
M14 melanoma
  GI50: 1.57 µM
  TGI: 3.76 µM
MALME-3M melanoma
  GI50: 1.41 µM
  TGI: 3.23 µM
MDA-MB-231 breast
  GI50: 1.59 µM
  TGI: 4 µM
MDA-MB-435
  GI50: 1.99 µM
  TGI: 6.56 µM
MOLT-4 leukemia
  GI50: 1.7 µM
  TGI: 5.62 µM
NCI-H226 lung
  GI50: 29.1 µM
  TGI: 77.6 µM
NCI-H23 lung
  GI50: 3.67 µM
  TGI: 19.1 µM
NCI-H460 lung
  GI50: 7.23 µM
  TGI: 25.2 µM
NCI-H522 lung
  GI50: 1.36 µM
  TGI: 2.95 µM
NCI/ADR-RES ovarian
  GI50: 4.52 µM
  TGI: 46.9 µM
OVCAR-3 ovarian
  GI50: 1.31 µM
  TGI: 2.77 µM
OVCAR-4 ovarian
  GI50: 2.34 µM
  TGI: 8 µM
OVCAR-5 ovarian
  GI50: 3.6 µM
  TGI: 14 µM
OVCAR-8 ovarian
  GI50: 3.29 µM
  TGI: 12 µM
PC-3 prostate
  GI50: 1.79 µM
  TGI: 4 µM
RPMI-8226 leukemia
  GI50: 2.02 µM
  TGI: 6.4 µM
RXF 393 renal
  GI50: 1.18 µM
  TGI: 2.6 µM
SF-268 CNS
  GI50: 5.22 µM
  TGI: 20 µM
SF-295 CNS
  GI50: 6.15 µM
  TGI: 21.6 µM
SF-539 CNS
  GI50: 1.85 µM
  TGI: 5.11 µM
SK-MEL-2 melanoma
  GI50: 6.51 µM
  TGI: 24.2 µM
SK-MEL-28 melanoma
  GI50: 2.78 µM
  TGI: 10.7 µM
SK-MEL-5 melanoma
  GI50: 3 µM
  TGI: 11.5 µM
SK-OV-3 ovarian
  GI50: 17.1 µM
  TGI: 33.1 µM
SN12C renal
  GI50: 1.96 µM
  TGI: 5.91 µM
SNB-19 CNS
  GI50: 5.96 µM
  TGI: 20 µM
SNB-75 CNS
  GI50: 11.9 µM
  TGI: 27.1 µM
SW-620 colon
  GI50: 1.12 µM
  TGI: 3.04 µM
T-47D breast
  GI50: 2.55 µM
  TGI: 9.08 µM
TK-10 renal
  GI50: 1.98 µM
  TGI: 4.46 µM
U251 CNS
  GI50: 5.2 µM
  TGI: 18.2 µM
UACC-257 melanoma
  GI50: 1.59 µM
  TGI: 3.61 µM
UACC-62 melanoma
  GI50: 1.64 µM
  TGI: 3.9 µM
UO-31 renal
  GI50: 1.44 µM
  TGI: 2.94 µM

## COc1cc(/C=C/C(=O)Nc2ccc3c(c2)/C(=C\c2cccn2C)C(=O)N3)cc(OC)c1OC
786-0 renal
  GI50: 8.69 µM
  TGI: 98.9 µM
A498 renal
  GI50: 2.65 µM
  TGI: 17.6 µM
A549 NSCLC
  GI50: 4.94 µM
  TGI: > 100 µM
ACHN renal
  GI50: 6.05 µM
  TGI: 53.9 µM
BT-549 breast
  GI50: 6.33 µM
  TGI: 24.9 µM
CAKI-1 renal
  GI50: 4.95 µM
  TGI: > 100 µM
CCRF-CEM leukemia
  GI50: 2.47 µM
  TGI: 33.5 µM
COLO 205 colon
  GI50: 3.51 µM
  TGI: 14.2 µM
DU-145 prostate
  GI50: 7.9 µM
  TGI: > 100 µM
HCC-2998 colon
  GI50: 5.34 µM
  TGI: 20.9 µM
HCT-116 colon
  GI50: 4.68 µM
  TGI: 29.2 µM
HCT-15 colon
  GI50: 3.83 µM
  TGI: > 100 µM
HL-60(TB) leukemia
  GI50: 2.48 µM
  TGI: 6.45 µM
HOP-62 NSCLC
  GI50: 3.71 µM
  TGI: 32 µM
HOP-92 NSCLC
  GI50: 1.54 µM
  TGI: 8.46 µM
HS 578T breast
  GI50: 3.34 µM
  TGI: > 100 µM
HT29 colon
  GI50: 3.45 µM
  TGI: 16.7 µM
IGROV1 ovarian
  GI50: 9.12 µM
  TGI: 70.9 µM
K-562 leukemia
  GI50: 3.06 µM
  TGI: > 100 µM
KM12 colon
  GI50: 3.2 µM
  TGI: 12.9 µM
LOX IMVI melanoma
  GI50: 4.21 µM
  TGI: 20.5 µM
M14 melanoma
  GI50: 6.7 µM
  TGI: 45.7 µM
MALME-3M melanoma
  GI50: 7.34 µM
  TGI: 27 µM
MCF7 breast
  GI50: 1.15 µM
  TGI: 6.7 µM
MDA-MB-231 breast
  GI50: 2.3 µM
  TGI: 17.8 µM
MDA-MB-435
  GI50: 6.41 µM
  TGI: 31.4 µM
MOLT-4 leukemia
  GI50: 4 µM
  TGI: 82.4 µM
NCI-H226 lung
  GI50: 8.14 µM
  TGI: 32 µM
NCI-H23 lung
  GI50: 5.01 µM
  TGI: 27.2 µM
NCI-H460 lung
  GI50: 4.52 µM
  TGI: 76.8 µM
NCI-H522 lung
  GI50: 2.41 µM
  TGI: 11.7 µM
NCI/ADR-RES ovarian
  GI50: 67.7 µM
  TGI: > 100 µM
OVCAR-3 ovarian
  GI50: 5.5 µM
  TGI: 22.3 µM
OVCAR-4 ovarian
  GI50: 4.43 µM
  TGI: > 100 µM
OVCAR-5 ovarian
  GI50: 16.6 µM
  TGI: 35.2 µM
OVCAR-8 ovarian
  GI50: 3.75 µM
  TGI: > 100 µM
RPMI-8226 leukemia
  GI50: 1.69 µM
  TGI: 4.04 µM
RXF 393 renal
  GI50: 4.99 µM
  TGI: 19.7 µM
SF-268 CNS
  GI50: 8.19 µM
  TGI: 35.9 µM
SF-295 CNS
  GI50: 5.15 µM
  TGI: 22 µM
SF-539 CNS
  GI50: 5.15 µM
  TGI: 19.8 µM
SK-MEL-28 melanoma
  GI50: 4.03 µM
  TGI: 17.7 µM
SK-MEL-5 melanoma
  GI50: 1.92 µM
  TGI: 6.68 µM
SK-OV-3 ovarian
  GI50: 8.35 µM
  TGI: 58.8 µM
SN12C renal
  GI50: 3.17 µM
  TGI: 59.8 µM
SNB-19 CNS
  GI50: 3.89 µM
  TGI: > 100 µM
SNB-75 CNS
  GI50: 2.15 µM
  TGI: 18.5 µM
SR leukemia
  GI50: 1.91 µM
  TGI: 48.9 µM
SW-620 colon
  GI50: 11.4 µM
  TGI: 46.5 µM
T-47D breast
  GI50: 1.59 µM
  TGI: 13.9 µM
TK-10 renal
  GI50: 3.68 µM
  TGI: 18.1 µM
U251 CNS
  GI50: 3.41 µM
  TGI: 20 µM
UACC-257 melanoma
  GI50: 10.1 µM
  TGI: 31.2 µM
UACC-62 melanoma
  GI50: 3.45 µM
  TGI: 33.7 µM
UO-31 renal
  GI50: 3.47 µM
  TGI: 33.3 µM
